{"source": "PubChem BioAssay AID2060888", "about": "(Molecular Pharmacology Branch, DTP, NCI, 2025);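 further: viability read after seven days of drug exposure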;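 on viability, T/C: 100% = DMSO vehicle control viability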", "test_system": "695427-040-R-J1-PDC complex spheroid viability", "assay": "Anticancer human tumor 695427-040-R-J1-PDC patient-derived colon adenocarcinoma cell line growth inhibition [RAS]", "details": "for viability, T/C: stronger effect = lower value", "procedure,_shortened": "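Tumour cells grown as complex spheroids with HUVEC endothelial cells and mesenchymal stem cells, treated with RAS pathway inhibitor combinations. Each agent spans half-log steps from near clinical Cmax, or 10 microM where Cmax is unknown.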", "data": [{"smiles": "C=CC(=O)Nc1cc(Nc2nccc(-c3cn(C)c4ccccc34)n2)c(OC)cc1N(C)CCN(C)C", "values": [{"measurement": "viability, T/C", "setting": "compound 0.00316 µM", "value": "96.4% [middle of 4 runs]"}, {"measurement": "viability, T/C", "setting": "compound 0.01 µM", "value": "92% [middle of 4 runs]"}, {"measurement": "viability, T/C", "setting": "compound 0.0316 µM", "value": "83.7% [middle of 4 runs]"}, {"measurement": "viability, T/C", "setting": "compound 0.1 µM", "value": "79.4% [middle of 4 runs]"}, {"measurement": "viability, T/C", "setting": "compound 0.316 µM", "value": "63.1% [middle of 4 runs]"}, {"measurement": "viability, T/C", "setting": "compound 1 µM", "value": "40.1% [middle of 4 runs]"}, {"measurement": "IC50", "setting": "curve of compound", "value": "597 nM [middle of 4 runs]"}]}, {"smiles": "CCc1c2c(nc3ccc(O)cc13)-c1cc3c(c(=O)n1C2)COC(=O)[C@]3(O)CC", "note": "+ CCn1c(-c2cc(N3CCN(C)CC3)cnc2C(C)OC)c2c3cc(ccc31)-c1csc(n1)CC(NC(=O)C1CC1C)C(=O)N1CCCC(N1)C(=O)OCC(C)(C)C2", "values": [{"measurement": "IC50", "setting": "curve of first compound, second compound 0.000949 µM", "value": 107, "unit": "nM"}, {"measurement": "IC50", "setting": "curve of first compound, second compound 0.003 µM", "value": 73.2, "unit": "nM"}, {"measurement": "IC50", "setting": "curve of first compound, second compound 0.00949 µM", "value": 56.8, "unit": "nM"}, {"measurement": "IC50", "setting": "curve of first compound, second compound 0.03 µM", "value": 7.69, "unit": "nM"}, {"measurement": "IC50", "setting": "curve of first compound, second compound 0.0949 µM", "value": "< 0.949", "unit": "nM"}, {"measurement": "IC50", "setting": "curve of first compound, second compound 0.3 µM", "value": "< 0.949", "unit": "nM"}, {"measurement": "viability, T/C", "setting": "second compound 0.000949 µM, first compound 0.000949 µM", "value": 88.8, "unit": "%"}, {"measurement": "viability, T/C", "setting": "second compound 0.000949 µM, first compound 0.003 µM", "value": 87, "unit": "%"}, {"measurement": "viability, T/C", "setting": "second compound 0.000949 µM, first compound 0.00949 µM", "value": 75.6, "unit": "%"}, {"measurement": "viability, T/C", "setting": "second compound 0.000949 µM, first compound 0.03 µM", "value": 61.8, "unit": "%"}, {"measurement": "viability, T/C", "setting": "second compound 0.000949 µM, first compound 0.0949 µM", "value": 55.4, "unit": "%"}, {"measurement": "viability, T/C", "setting": "second compound 0.000949 µM, first compound 0.3 µM", "value": 33.7, "unit": "%"}, {"measurement": "viability, T/C", "setting": "second compound 0.003 µM, first compound 0.000949 µM", "value": 103, "unit": "%"}, {"measurement": "viability, T/C", "setting": "second compound 0.003 µM, first compound 0.003 µM", "value": 86.1, "unit": "%"}, {"measurement": "viability, T/C", "setting": "second compound 0.003 µM, first compound 0.00949 µM", "value": 66, "unit": "%"}, {"measurement": "viability, T/C", "setting": "second compound 0.003 µM, first compound 0.03 µM", "value": 63.6, "unit": "%"}, {"measurement": "viability, T/C", "setting": "second compound 0.003 µM, first compound 0.0949 µM", "value": 48, "unit": "%"}, {"measurement": "viability, T/C", "setting": "second compound 0.003 µM, first compound 0.3 µM", "value": 36.3, "unit": "%"}, {"measurement": "viability, T/C", "setting": "second compound 0.00949 µM, first compound 0.000949 µM", "value": 82.3, "unit": "%"}, {"measurement": "viability, T/C", "setting": "second compound 0.00949 µM, first compound 0.003 µM", "value": 64, "unit": "%"}, {"measurement": "viability, T/C", "setting": "second compound 0.00949 µM, first compound 0.00949 µM", "value": 65, "unit": "%"}, {"measurement": "viability, T/C", "setting": "second compound 0.00949 µM, first compound 0.03 µM", "value": 57.8, "unit": "%"}, {"measurement": "viability, T/C", "setting": "second compound 0.00949 µM, first compound 0.0949 µM", "value": 50, "unit": "%"}, {"measurement": "viability, T/C", "setting": "second compound 0.00949 µM, first compound 0.3 µM", "value": 26.6, "unit": "%"}, {"measurement": "viability, T/C", "setting": "second compound 0.03 µM, first compound 0.000949 µM", "value": 59.2, "unit": "%"}, {"measurement": "viability, T/C", "setting": "second compound 0.03 µM, first compound 0.003 µM", "value": 51.6, "unit": "%"}, {"measurement": "viability, T/C", "setting": "second compound 0.03 µM, first compound 0.00949 µM", "value": 55.3, "unit": "%"}, {"measurement": "viability, T/C", "setting": "second compound 0.03 µM, first compound 0.03 µM", "value": 35.3, "unit": "%"}, {"measurement": "viability, T/C", "setting": "second compound 0.03 µM, first compound 0.0949 µM", "value": 41.6, "unit": "%"}, {"measurement": "viability, T/C", "setting": "second compound 0.03 µM, first compound 0.3 µM", "value": 27.9, "unit": "%"}, {"measurement": "viability, T/C", "setting": "second compound 0.0949 µM, first compound 0.000949 µM", "value": 45.2, "unit": "%"}, {"measurement": "viability, T/C", "setting": "second compound 0.0949 µM, first compound 0.003 µM", "value": 41.7, "unit": "%"}, {"measurement": "viability, T/C", "setting": "second compound 0.0949 µM, first compound 0.00949 µM", "value": 46.7, "unit": "%"}, {"measurement": "viability, T/C", "setting": "second compound 0.0949 µM, first compound 0.03 µM", "value": 31.8, "unit": "%"}, {"measurement": "viability, T/C", "setting": "second compound 0.0949 µM, first compound 0.0949 µM", "value": 30.7, "unit": "%"}, {"measurement": "viability, T/C", "setting": "second compound 0.0949 µM, first compound 0.3 µM", "value": 20.5, "unit": "%"}, {"measurement": "viability, T/C", "setting": "second compound 0.3 µM, first compound 0.000949 µM", "value": 38.1, "unit": "%"}, {"measurement": "viability, T/C", "setting": "second compound 0.3 µM, first compound 0.003 µM", "value": 37.6, "unit": "%"}, {"measurement": "viability, T/C", "setting": "second compound 0.3 µM, first compound 0.00949 µM", "value": 28.2, "unit": "%"}, {"measurement": "viability, T/C", "setting": "second compound 0.3 µM, first compound 0.03 µM", "value": 30.8, "unit": "%"}, {"measurement": "viability, T/C", "setting": "second compound 0.3 µM, first compound 0.0949 µM", "value": 23.8, "unit": "%"}, {"measurement": "viability, T/C", "setting": "second compound 0.3 µM, first compound 0.3 µM", "value": 16.9, "unit": "%"}]}, {"smiles": "CCc1c2c(nc3ccc(O)cc13)-c1cc3c(c(=O)n1C2)COC(=O)[C@]3(O)CC", "note": "+ C#Cc1c(F)ccc2cc(O)cc(-c3ncc4c(N5CC6CCC(C5)N6)nc(OCC56CCCN5CC(F)C6)nc4c3F)c12", "values": [{"measurement": "IC50", "setting": "curve of first compound, second compound 0.0316 µM", "value": 119, "unit": "nM"}, {"measurement": "IC50", "setting": "curve of first compound, second compound 0.1 µM", "value": 122, "unit": "nM"}, {"measurement": "IC50", "setting": "curve of first compound, second compound 0.316 µM", "value": 93.3, "unit": "nM"}, {"measurement": "IC50", "setting": "curve of first compound, second compound 1 µM", "value": 59.7, "unit": "nM"}, {"measurement": "IC50", "setting": "curve of first compound, second compound 3.16 µM", "value": 10.7, "unit": "nM"}, {"measurement": "IC50", "setting": "curve of first compound, second compound 10 µM", "value": "< 0.949", "unit": "nM"}, {"measurement": "viability, T/C", "setting": "second compound 0.0316 µM, first compound 0.000949 µM", "value": 89.1, "unit": "%"}, {"measurement": "viability, T/C", "setting": "second compound 0.0316 µM, first compound 0.003 µM", "value": 89.8, "unit": "%"}, {"measurement": "viability, T/C", "setting": "second compound 0.0316 µM, first compound 0.00949 µM", "value": 77.9, "unit": "%"}, {"measurement": "viability, T/C", "setting": "second compound 0.0316 µM, first compound 0.03 µM", "value": 76, "unit": "%"}, {"measurement": "viability, T/C", "setting": "second compound 0.0316 µM, first compound 0.0949 µM", "value": 53.5, "unit": "%"}, {"measurement": "viability, T/C", "setting": "second compound 0.0316 µM, first compound 0.3 µM", "value": 30.4, "unit": "%"}, {"measurement": "viability, T/C", "setting": "second compound 0.1 µM, first compound 0.000949 µM", "value": 96.1, "unit": "%"}, {"measurement": "viability, T/C", "setting": "second compound 0.1 µM, first compound 0.003 µM", "value": 86.2, "unit": "%"}, {"measurement": "viability, T/C", "setting": "second compound 0.1 µM, first compound 0.00949 µM", "value": 78.8, "unit": "%"}, {"measurement": "viability, T/C", "setting": "second compound 0.1 µM, first compound 0.03 µM", "value": 72.2, "unit": "%"}, {"measurement": "viability, T/C", "setting": "second compound 0.1 µM, first compound 0.0949 µM", "value": 58.7, "unit": "%"}, {"measurement": "viability, T/C", "setting": "second compound 0.1 µM, first compound 0.3 µM", "value": 28.6, "unit": "%"}, {"measurement": "viability, T/C", "setting": "second compound 0.316 µM, first compound 0.000949 µM", "value": 82, "unit": "%"}, {"measurement": "viability, T/C", "setting": "second compound 0.316 µM, first compound 0.003 µM", "value": 79.9, "unit": "%"}, {"measurement": "viability, T/C", "setting": "second compound 0.316 µM, first compound 0.00949 µM", "value": 70.7, "unit": "%"}, {"measurement": "viability, T/C", "setting": "second compound 0.316 µM, first compound 0.03 µM", "value": 67.1, "unit": "%"}, {"measurement": "viability, T/C", "setting": "second compound 0.316 µM, first compound 0.0949 µM", "value": 49.4, "unit": "%"}, {"measurement": "viability, T/C", "setting": "second compound 0.316 µM, first compound 0.3 µM", "value": 25.7, "unit": "%"}, {"measurement": "viability, T/C", "setting": "second compound 1 µM, first compound 0.000949 µM", "value": 73.8, "unit": "%"}, {"measurement": "viability, T/C", "setting": "second compound 1 µM, first compound 0.003 µM", "value": 66.1, "unit": "%"}, {"measurement": "viability, T/C", "setting": "second compound 1 µM, first compound 0.00949 µM", "value": 60.1, "unit": "%"}, {"measurement": "viability, T/C", "setting": "second compound 1 µM, first compound 0.03 µM", "value": 59.8, "unit": "%"}, {"measurement": "viability, T/C", "setting": "second compound 1 µM, first compound 0.0949 µM", "value": 45.8, "unit": "%"}, {"measurement": "viability, T/C", "setting": "second compound 1 µM, first compound 0.3 µM", "value": 27.2, "unit": "%"}, {"measurement": "viability, T/C", "setting": "second compound 3.16 µM, first compound 0.000949 µM", "value": 54.3, "unit": "%"}, {"measurement": "viability, T/C", "setting": "second compound 3.16 µM, first compound 0.003 µM", "value": 52, "unit": "%"}, {"measurement": "viability, T/C", "setting": "second compound 3.16 µM, first compound 0.00949 µM", "value": 48.7, "unit": "%"}, {"measurement": "viability, T/C", "setting": "second compound 3.16 µM, first compound 0.03 µM", "value": 46, "unit": "%"}, {"measurement": "viability, T/C", "setting": "second compound 3.16 µM, first compound 0.0949 µM", "value": 40.1, "unit": "%"}, {"measurement": "viability, T/C", "setting": "second compound 3.16 µM, first compound 0.3 µM", "value": 24.9, "unit": "%"}, {"measurement": "viability, T/C", "setting": "second compound 10 µM, first compound 0.000949 µM", "value": 37.4, "unit": "%"}, {"measurement": "viability, T/C", "setting": "second compound 10 µM, first compound 0.003 µM", "value": 36.5, "unit": "%"}, {"measurement": "viability, T/C", "setting": "second compound 10 µM, first compound 0.00949 µM", "value": 36.8, "unit": "%"}, {"measurement": "viability, T/C", "setting": "second compound 10 µM, first compound 0.03 µM", "value": 28.1, "unit": "%"}, {"measurement": "viability, T/C", "setting": "second compound 10 µM, first compound 0.0949 µM", "value": 26.2, "unit": "%"}, {"measurement": "viability, T/C", "setting": "second compound 10 µM, first compound 0.3 µM", "value": 17.2, "unit": "%"}]}]}
